Here are results for eight compounds from patent US10881694B2, “In vitro model for neuronal death” (priority 2003, dated 2021).

Data set [1] has as its system cortical neurons. Nature of the data set: Polarization of somal lipid raft microdomains (CTx-B staining) in cultured cortical neurons. The data set is classed as cell-based, mouse. The following applies: for inhibition of lipid raft / microdomain polarization: treatment of cortical cultures, neurotoxic insult not specified; for percentage of neurons with polarized raft microdomains: cholesterol-depleted vs control neurons; for inhibition of lipid raft polarization: FIG. 3, 25 μM A-beta 25-35 peptide and 300 μM NMDA.

Data set [2] has as its system cortical neurons. Briefly: Neuronal death by LDH release assay (and chromatin fragmentation, FIG. 3) after neurotoxic exposure. The following applies: for effect of co-treatment on neuroprotection by statins: co-treatment with HMG-CoA reductase inhibitor. The data set is classed as cell-based, mouse.
In data set [3] the test system is cortical neurons. Nature of the data set: Chromatin integrity (DAPI): nuclei with condensed and fragmented chromatin. The data set is classed as cell-based, mouse. The following applies: cholesterol-depleted vs control neurons.
The conditions of data set [4]: active form of mevastatin; cited from earlier work.
Setting [5] is: three hours following 20 μM Aβ 25-35.

Regarding `C[N+](C)(C)CC(O)CC(=O)[O-]` (stereo not shown) [carnitine], the “inhibition of lipid raft / microdomain polarization” value in the data set on cortical neurons [1] is given as “inhibit raft polarization”.

In the case of `CC(C)CCC[C@@H](C)[C@H]1CC[C@H]2[C@@H]3CC=C4C[C@@H](O)CC[C@]4(C)[C@H]3CC[C@]12C` [cholesterol], the “effect on cholesterol depletion induced resistance to neuronal death (LDH release)” value with cortical neurons [2] (5 μM cholesterol co-incubated with mevastatin, or 2 mM cholesterol complexed with 2.5% βCD for 15 min after 1% βCD, 20 μM Aβ 25-35 or NMDA) is recorded as “prevented”. Further, in the data set on cortical neurons [2], the “effect of co-treatment on neuroprotection by statins” value is recorded as “substantially attenuated”.

Consider `C=C1[C@@H](C)[C@H]2[C@H](Cc3ccccc3)NC(=O)[C@]23[C@H](OC(C)=O)/C=C/[C@@](C)(O)C(=O)[C@@H](C)C/C=C/[C@H]3[C@@H]1O` [cytochalasin D], for which, in the data set with cortical neurons [1], the “inhibition of lipid raft / microdomain polarization” value is given as “prevents the polarization of lipid microdomains”.

In the case of `CC(O)(CCO)CC(=O)O` (stereo not shown) [mevalonate], the “effect of co-treatment on neuroprotection by statins” value with cortical neurons [2] is “substantially attenuated”.

`CC[C@H](C)C(=O)O[C@H]1CCC=C2C=C[C@H](C)[C@H](CC[C@@H]3C[C@@H](O)CC(=O)O3)[C@H]21` [mevastatin]: the “protection against neurotoxic exposure (LDH release assay and chromatin fragmentation)” value with cortical neurons [2] (25 μM A-beta 25-35 peptide) and in the data set with cortical neurons [2] (300 μM NMDA) was “protect against neurotoxic exposure” in each case. Besides, the “percentage of neurons with condensed and fragmented chromatin” value in the data set on cortical neurons [3] (24 h following 300 μM NMDA) and in the data set with cortical neurons [3] (48 h following 20 μM Aβ 25-35) was “significantly lower” throughout. Besides, the “lipophilicity relative to simvastatin (times less lipophilic)” value in data set [4] is listed as “approximately 8 times”. Besides, the “percentage of neurons with polarized raft microdomains” value with cortical neurons [1] (1 h following 300 μM NMDA) and with cortical neurons [1] (setting [5]) was “significantly lower” throughout. The “inhibition of lipid raft polarization” value with cortical neurons [1] was “inhibit lipid raft polarization”.

For “A-beta 25-35 peptide: beta-amyloid peptide fragment 25-35, neurotoxic stimulus (GSNKGAIIGLM; Amyloid-beta protein 42; UniProt P05067 696-706, looked up, fragment)”, the “induction of raft microdomain polarization to a pole of the neuronal cell body” value with cortical neurons [1] (neurotoxic stimulus, FIG. 1B) was “aggregation and polarization of raft microdomains”.

Take latrunculins: in the data set with cortical neurons [1], the “inhibition of lipid raft / microdomain polarization” value was “prevents the polarization of lipid microdomains”.

In the case of methyl-β-cyclodextrin [βCD], the “protection against neurotoxic exposure (LDH release assay and chromatin fragmentation)” value in the data set on cortical neurons [2] (25 μM A-beta 25-35 peptide) and in the data set with cortical neurons [2] (300 μM NMDA) was “protect against neurotoxic exposure” each time. The “protection against neuronal death / neurotoxic insults” value in the data set on cortical neurons [2] (treatment of cortical cultures, insult not specified) is reported as “protects against neuronal death”. The “percentage of neurons with condensed and fragmented chromatin” value with cortical neurons [3] (24 h following 300 μM NMDA) and in the data set with cortical neurons [3] (48 h following 20 μM Aβ 25-35) was “significantly lower” in each case. Also, the “inhibition of raft polarization” value in the data set with cortical neurons [1] (15 min exposure to 25 μM A-beta 25-35 peptide, 1 hr pre-treatment) is “inhibition of raft polarization”. Further, the “percentage of neurons with polarized raft microdomains” value with cortical neurons [1] (1 h following 300 μM NMDA) and with cortical neurons [1] (setting [5]) was “significantly lower” in each case. Further, the “inhibition of lipid raft polarization” value in the data set on cortical neurons [1] is “inhibit lipid raft polarization”. Moreover, the “inhibition of lipid raft / microdomain polarization” value in the data set with cortical neurons [1] is listed as “inhibits lipid raft polarization”.
